Measured values published in patent US20140356287A1, “PLOD2 as a Target of Intervention for Sarcoma Metastasis” (The Trustees of the University of Pennsylvania, priority 2013, published 2014).
Entries after “also recorded” stand apart in the source; their conditions may differ.

Tested on: KIA cells
Assay: Subcutaneous KIA cell allograft in nude mice (primary tumor, lung metastasis, collagen)
Assay type: in vivo
Conditions: 1 mg/kg or 3 mg/kg intraperitoneal every other day for 3 weeks
Excerpt: Generation of Hif1α^fl/fl mice (Ryan et al., 2000, Cancer Res 60(15):4010-5) and LSL-Kras^G12D/+Trp53^fl/fl mice has been previously described (Kirsch et al., 2007, Nat Med 13(8):992-7). These mice were crossed to create the LSL-Kras^G12D/+Trp53^fl/flHif1a^fl/fl animals. Soft tissue sarcomas were generated by intramuscular injection of a calcium phosphate precipitate of Ad-Cre (Gene Transfer Vector Core, University of Iowa). For transplant tumors 1×106 KIA (derived from LSL-Kras^G12D/+[…] tumors) were injected subcutaneously into the flanks of nu/nu mice (Charles River Laboratories). In each experiment 10 mice per experimental group were used with each mouse bearing two subcutaneous tumors. Tumors developed after 3-5 days, were monitored every other day, and animals were euthanized after 20-30 days. For in vivo lung metastasis analysis lung tissues were removed, and sections were stained with hematoxylin and eosin. Images were acquired using a Nikon SMZ800 stereoscope with a Nikon 1200F digital camera and Nikon Act-1 software. The ratio of total metastatic sarcoma foci to total lung area (% tumor burden) was determined using ImagePro 6.3 software (Media Cybernetics Inc.). Additionally, the percent of animals in the entire cohort with metastatic foci was evaluated along with total number of metastatic foci per experiment and the averae number of sarcoma lung foci per lung in each experiment. For Minoxidil injections, allografts and drug treatments were started simultaneously. Mice bearing subcutaneous KIA tumors on each flank were intraperitoneal injected with PBS, 1 mg/kg Minoxidil, or 3 mg/kg Minoxidil every other day unless the animals were euthanized, the tumors and lungs removed.
Immunohistochemistry of tissue sections with antibodies to HIF1α (Abcam) and Lectin (Vector Labs) was performed using enzymatic Avidin-Biotin Complex (ABC)-diaminobenzidine (DAB) staining (Vector Labs). Nuclei were counterstained with hematoxylin. […] Collagen was quantified using Image-Pro software. […]

Nc1cc(N2CCCCC2)nc(N)[n+]1[O-] [Minoxidil]
overall animal health/weight: no effect; also recorded: unaffected
primary tumor volume: no effect
tumor weight (mass): no effect
